The values below come from US20090023186A1, “USE OF VALPROIC ACID FOR ENHANCING PRODUCTION OF RECOMBINANT PROTEINS IN MAMMALIAN CELLS” (EXCELLGENE SA, priority 2007, published 2009).

In experiment [1] the test system is CHO DG44 cells. As to the kind of experiment: Influence of temperature on IgG batch titer and comparison with sodium butyrate (Example 2). The experiment is classed as cell-based, Chinese Hamster. The conditions noted are these: day 5 after transfection. As for the experimental part:
No. 14571C-[…]; Lot No. 6A0093; SAFC Biosciences, Lenexa, Kans., USA, “Ex-Cell” medium; note: “Ex-Cell” medium-as used herein-refers to a medium comprising 4 mmol/l L-glutamine) in a 50-ml filter tube each (TPP AG, Trasadingen, Switzerland; Cat. No. 87050, Lot 20050174). In a separate set, 10 million suspension-adapted CHO DG44 cells were resuspended in 0.5 ml of ProCHO5 serum-free medium with 4 mmol/[…] hypoxanthine and 0.194 g/l thymidine (BioWhittaker (Lonza), Belgium; Cat. No. BE12-[…]; Lot No. 7 MB0040; “ProCHO5” medium; note: “ProCHO5” medium-as used herein-refers to a medium comprising 4 mmol/[…] hypoxanthine and 0.194 g/l thymidine) in a 50-ml filter tube each (TPP AG, Trasadingen, Switzerland; Cat. No. 87050, Lot 20050174). Then 12.5 μg plasmid DNA at a concentration of 1 μg/μl was added in each tube with the following composition 50% (6.25 μg) p-LC (SEQ ID NO: 1) 50% (6.25 μg) p-HC (SEQ ID NO: 3). Plasmid p-LC comprises the genetic information for the production of the light chain of an IgG antibody, plasmid p-HC comprises the genetic information for the production of the heavy chain of an IgG antibody. The particular vector constructs used in the present invention can also be obtained from the inventors. The inventors can be contacted via e-mail at […]. Moreover, commercial services do exist that produce any desired nucleotide sequence even comprising several kilobase pairs including complete expression cassettes in plasmid backgrounds (e.g., Invitrogen, Carlsbad, USA; Geneart, Germany.) Thus, providing the genetic sequence information of the plasmids should enable one of ordinary skill in the art to order the plasmids of the present invention at one of the commercial services listed. After shortly mixing the DNA with the cells by gentle shaking, 25 μg of 25-kd linear polyethyleneimine (“PEI”; Polysciences, Eppelheim, Germany; [2]) were added at a concentration of 1 μg/μl to each of the tubes. After shortly mixing by gentle shaking, the filter tubes containing the cells together with the DNA and PEI were transferred into an orbital shaker (Kühner Shaker Cabinet ISF-4-W, “Kühner shaker”, Kühner AG, Birsfelden, Switzerland), and the cells were incubated for 4 hours at 37° C. in a 5% CO2 atmosphere under shaking at 180 rpm. After that time, 4.5 ml of Ex-Cell medium were added to each of the filter tubes containing HEK 293 cells and 4.5 ml of Pro-CHO5 were added to each of the filter tubes containing CHO DG44 cells. […] No. […] Sigma-Aldrich Chemie GmbH, Industriestrasse 25, CH-9471 Buchs SG) was added to the corresponding tubes at the corresponding final concentrations. The cells then were returned into the Kühner shaker. Half the tubes were incubated at 37° C. in a 5% CO2 atmosphere under shaking at 180 rpm, the other half was incubated at 31° C. […] The ELISA was performed as published in prior art. In short, Goat anti-human kappa light chain IgG (Biosource) was used for coating the ELISA-plates, and with AP-conjugated goat anti-human gamma chain IgG (Biosource) the synthesized IgG1 was detected. NPP was used as a substrate for the alkaline phosphatase. Absorption was measured at 405 nm against 490 nm using a microplate reader (SPECTRAmaxTM340; Molecular Devices, Palo Alto, Calif., USA).

The subject of experiment [2] is HEK293E cells. As to the kind of experiment: Alternative transgene TNFR-Fc, batch titer by ELISA (Example 4). The class given is cell-based, Human. Particulars: 3.8 mmol/l final VPA, day 5 after transfection. As to the method:
10 million suspension-adapted HEK293E cells were resuspended in 0.5 ml of Ex-Cell 293 HEK 293 serum-free medium with 4 mmol/l L-glutamine (Cat. No. 14571C-[…]; Lot No. 6A0093; SAFC Biosciences, Lenexa, Kans., USA, “Ex-Cell” medium; note: “Ex-Cell” medium-as used herein-refers to a medium comprising 4 mmol/l L-glutamine) in a 50-ml filter tube each (TPP AG, Trasadingen, Switzerland; Cat. No. 87050, Lot 20050174). In a separate set, 10 million suspension-adapted CHO DG44 cells were resuspended in 0.5 ml of ProCHO5 serum-free medium with 4 mmol/[…] hypoxanthine and 0.194 g/l thymidine (BioWhittaker (Lonza), Belgium; Cat. No. BE12-[…]; Lot No. 7MB0040; “ProCHO5” medium; note: “ProCHO5” medium-as used herein-refers to a medium comprising 4 mmol/[…] hypoxanthine and 0.194 g/l thymidine) in a 50-ml filter tube each (TPP AG, Trasadingen, Switzerland; Cat. No. 87050, Lot 20050174). […] In short, Goat Anti-Human IgG (Fc Fragment specific; Jackson ImmunoResearch Laboratories Inc., West Grove, Pa., USA; Code Number 109-006-098; Lot No. 72349) was used for coating the ELISA-plates, and with AP-conjugated goat anti-human gamma chain IgG (Biosource) the synthesized TNFR-Fc was detected. […] Absorption was measured at 405 nm against 490 nm using a microplate reader (SPECTRAmaxTM340; Molecular Devices, Palo Alto, Calif., USA).

Where [3] appears, read: 3.8 mmol/l VPA, relative to control = 1.

Each structure is given as a SMILES string.

With `CCCC(CCC)C(=O)O` [VPA, valproic acid], in experiment [1] (setting [3]), the “Batch titer increase at 31° C.” value came out at 1.5 ± 0.1 and the “Batch titer increase at 37° C.” value was found to be 2.1 ± 0.1. For the same compound, the “performance compared with sodium butyrate (batch titer increase)” value in experiment [1] (31° C. and 37° C.) is on record as “slightly better performance than sodium butyrate”. In addition, in experiment [2], the Batch titer stood at 159.5 ± 12.0 mg/L and the “Fold increase over control” value came out at 4.5 fold.
